Assay results reported in PMC9394736 (FASEB journal : official publication of the Federation of …, 2020).

What was measured:
GDAP1ΔTM = target: T1, GDAP1ΔTM (Mus musculus, UniProt O88741); assay: differential scanning fluorimetry; type: binding; settings: 2 mM or 0.5 mM ethacrynic acid; H-site
T1 sequence (O88741 1-322): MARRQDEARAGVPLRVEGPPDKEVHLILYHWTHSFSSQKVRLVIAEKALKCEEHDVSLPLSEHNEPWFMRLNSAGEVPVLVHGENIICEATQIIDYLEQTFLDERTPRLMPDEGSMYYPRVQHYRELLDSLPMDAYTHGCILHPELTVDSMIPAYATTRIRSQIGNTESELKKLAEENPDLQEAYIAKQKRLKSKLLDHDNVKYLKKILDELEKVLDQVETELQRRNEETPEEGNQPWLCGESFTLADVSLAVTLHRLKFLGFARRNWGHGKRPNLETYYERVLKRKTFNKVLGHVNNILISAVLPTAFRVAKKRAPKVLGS

GDAP1ΔHD1 = target: T2, GDAP1ΔHD1 (Mus musculus, UniProt O88741); assay: differential scanning fluorimetry; type: binding; settings: 2 mM or 0.5 mM ethacrynic acid; H-site
T2 sequence (O88741 1-292): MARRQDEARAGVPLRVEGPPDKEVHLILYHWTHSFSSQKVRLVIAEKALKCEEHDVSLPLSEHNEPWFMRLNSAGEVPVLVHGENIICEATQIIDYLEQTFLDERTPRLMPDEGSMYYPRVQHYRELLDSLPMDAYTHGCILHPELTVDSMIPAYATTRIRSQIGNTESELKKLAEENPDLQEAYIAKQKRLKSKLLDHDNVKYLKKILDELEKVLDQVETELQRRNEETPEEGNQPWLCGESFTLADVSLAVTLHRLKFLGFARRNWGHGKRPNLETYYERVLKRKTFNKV

GDAP1ΔNTΔHD1 = target: T3, GDAP1ΔNTΔHD1 (Mus musculus, UniProt O88741); assay: differential scanning fluorimetry; type: binding; settings: 2 mM or 0.5 mM ethacrynic acid; H-site
T3 sequence (O88741 20-292): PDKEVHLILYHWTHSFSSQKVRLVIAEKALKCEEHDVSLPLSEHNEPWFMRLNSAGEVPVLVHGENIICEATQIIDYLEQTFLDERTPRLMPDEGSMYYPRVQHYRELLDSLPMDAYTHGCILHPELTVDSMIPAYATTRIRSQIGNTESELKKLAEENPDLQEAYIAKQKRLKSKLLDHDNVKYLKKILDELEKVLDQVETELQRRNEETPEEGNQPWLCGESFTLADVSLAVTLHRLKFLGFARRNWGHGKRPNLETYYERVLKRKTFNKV

GST Mu = GST Mu (Schistosoma japonicum, UniProt P08515); assay: differential scanning fluorimetry; type: binding; settings: 1 mM ethacrynic acid, without or with 1 mM GSH; H-site
GDAP1ΔNT = target: T4, GDAP1ΔNT (Mus musculus, UniProt O88741); assay: differential scanning fluorimetry; type: binding; settings: 2 mM or 0.5 mM ethacrynic acid; H-site
T4 sequence (O88741 20-322): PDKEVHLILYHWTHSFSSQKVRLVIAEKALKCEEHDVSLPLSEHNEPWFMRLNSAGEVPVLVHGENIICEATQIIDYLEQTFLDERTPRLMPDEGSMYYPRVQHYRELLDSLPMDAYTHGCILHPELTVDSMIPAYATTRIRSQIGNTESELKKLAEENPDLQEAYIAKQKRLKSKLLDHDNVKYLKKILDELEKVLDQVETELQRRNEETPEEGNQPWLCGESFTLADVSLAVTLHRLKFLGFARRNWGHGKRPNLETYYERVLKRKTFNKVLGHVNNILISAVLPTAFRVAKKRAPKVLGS

[1] = target: GST Mu (Mu class glutathione S-transferase from Schistosoma japonicum) (Schistosoma japonicum); assay: SEC

Sequence of GST Mu (Mu class glutathione S-transferase from Schistosoma japonicum) (enzyme) (P08515 2-218): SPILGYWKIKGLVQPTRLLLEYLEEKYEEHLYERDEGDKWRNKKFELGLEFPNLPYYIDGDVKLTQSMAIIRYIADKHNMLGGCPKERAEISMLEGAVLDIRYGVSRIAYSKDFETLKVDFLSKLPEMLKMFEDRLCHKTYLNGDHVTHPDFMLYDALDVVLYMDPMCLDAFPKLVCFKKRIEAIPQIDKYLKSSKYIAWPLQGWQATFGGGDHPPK
Sequence of GST Mu (P08515 whole entry): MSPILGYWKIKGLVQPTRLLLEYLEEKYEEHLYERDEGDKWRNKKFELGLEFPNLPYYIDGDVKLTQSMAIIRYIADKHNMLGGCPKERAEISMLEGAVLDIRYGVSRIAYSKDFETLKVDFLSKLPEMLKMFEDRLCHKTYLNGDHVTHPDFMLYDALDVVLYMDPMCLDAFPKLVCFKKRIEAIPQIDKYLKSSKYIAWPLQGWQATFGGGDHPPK

Row | Compound | melting temperature shift (GDAP1ΔTM) | melting temperature shift (GDAP1ΔHD1) | melting temperature shift (GDAP1ΔNTΔHD1) | melting temperature shift (GST Mu) | melting temperature shift (GDAP1ΔNT) | stoichiometry N [1]
1 | C=C(CC)C(=O)c1ccc(OCC(=O)O)c(Cl)c1Cl [ethacrynic acid] | GDAP1ΔTM, GDAP1ΔHD1, GDAP1ΔNT, GDAP1ΔNT ΔHD1 all retained ethacrynic acid binding | GDAP1ΔHD1 retains binding but the magnitude of the shift was reduced | GDAP1ΔTM, GDAP1ΔHD1, GDAP1ΔNT, GDAP1ΔNT ΔHD1 all retained ethacrynic acid binding | GST Mu had an enhanced shift in the presence of both glutathione and EA | GDAP1ΔTM, GDAP1ΔHD1, GDAP1ΔNT, GDAP1ΔNT ΔHD1 all retained ethacrynic acid binding | –
2 | GST Mu (Mu class glutathione S-transferase from Schistosoma japonicum) (enzyme) | – | – | – | – | – | 2
